Data from PMC7385619, “A triple action CDK4/6-PI3K-BET inhibitor with augmented cancer cell cytotoxicity” (Cell Discovery, 2020).
Read-outs that look alike come from different tables or passages of the source.

What was measured:
Assay in all cases: KINOMEscan assay (Eurofins DiscoverX)
Format in all cases: binding
kinome (kinase panel) [1] = biological target: T1, kinome (kinase panel) (Homo sapiens, UniProt O96013); details: PAK4; 1000 nM; read-out: Percent Control
T1 construct: purchased Eurofins DiscoverX

kinome (kinase panel) [2] = biological target: T2, kinome (kinase panel) (Homo sapiens, UniProt Q16816); details: PHKG1; 1000 nM; read-out: Percent Control
T2 construct: purchased Eurofins DiscoverX

kinome (kinase panel) [3] = biological target: T3, kinome (kinase panel) (Homo sapiens, UniProt Q9Y2I7); details: PIKFYVE; 1000 nM; read-out: Percent Control
T3 construct: purchased Eurofins DiscoverX

kinome (kinase panel) [4] = biological target: T4, kinome (kinase panel) (Homo sapiens, UniProt Q9BXA7); details: TSSK1B; 1000 nM; read-out: Percent Control
T4 construct: purchased Eurofins DiscoverX

kinome (kinase panel) [5] = biological target: T5, kinome (kinase panel) (Homo sapiens, UniProt Q8N752); details: CSNK1A1L; 1000 nM; read-out: Percent Control
T5 construct: purchased Eurofins DiscoverX

kinome (kinase panel) [6] = biological target: T6, kinome (kinase panel) (Homo sapiens, UniProt Q96D53); details: ADCK4; 1000 nM; read-out: Percent Control
T6 construct: purchased Eurofins DiscoverX

kinome (kinase panel) [7] = biological target: T7, kinome (kinase panel) (Homo sapiens, UniProt Q9H2X6); details: HIPK2; 1000 nM; read-out: Percent Control
T7 construct: purchased Eurofins DiscoverX

kinome (kinase panel) [8] = biological target: T8, kinome (kinase panel) (Homo sapiens, UniProt Q9UM73, C1156Y); details: […]; 1000 nM; read-out: Percent Control
T8 construct: purchased Eurofins DiscoverX

kinome (kinase panel) [9] = biological target: T9, kinome (kinase panel) (Homo sapiens, UniProt P37173); details: TGFBR2; 1000 nM; read-out: Percent Control
T9 construct: purchased Eurofins DiscoverX

kinome (kinase panel) [10] = biological target: T10, kinome (kinase panel) (Homo sapiens, UniProt P07949); details: RET; 1000 nM; read-out: Percent Control
T10 construct: purchased Eurofins DiscoverX

kinome (kinase panel) [11] = biological target: T11, kinome (kinase panel) (Homo sapiens, UniProt O00141); details: SGK (SGK1); 1000 nM; read-out: Percent Control
T11 construct: purchased Eurofins DiscoverX

kinome (kinase panel) [12] = biological target: T12, kinome (kinase panel) (Homo sapiens, UniProt P35916); details: FLT4; 1000 nM; read-out: Percent Control
T12 construct: purchased Eurofins DiscoverX

kinome (kinase panel) [13] = biological target: T13, kinome (kinase panel) (Homo sapiens, UniProt P50613); details: CDK7; 1000 nM; read-out: Percent Control
T13 construct: purchased Eurofins DiscoverX

kinome (kinase panel) [14] = biological target: T14, kinome (kinase panel) (Homo sapiens, UniProt Q13873); details: BMPR2; 1000 nM; read-out: Percent Control
T14 construct: purchased Eurofins DiscoverX

kinome (kinase panel) [15] = biological target: T15, kinome (kinase panel) (Homo sapiens, UniProt Q9H0K1); details: SIK2; 1000 nM; read-out: Percent Control
T15 construct: purchased Eurofins DiscoverX

kinome (kinase panel) [16] = biological target: T16, kinome (kinase panel) (Homo sapiens, UniProt Q9H093); details: SNARK (NUAK2); 1000 nM; read-out: Percent Control
T16 construct: purchased Eurofins DiscoverX

kinome (kinase panel) [17] = biological target: T17, kinome (kinase panel) (Homo sapiens, UniProt Q8IU85); details: CAMK1D; 1000 nM; read-out: Percent Control
T17 construct: purchased Eurofins DiscoverX

kinome (kinase panel) [18] = biological target: T18, kinome (kinase panel) (Homo sapiens, UniProt P42680); details: TEC; 1000 nM; read-out: Percent Control
T18 construct: purchased Eurofins DiscoverX

kinome (kinase panel) [19] = biological target: T19, kinome (kinase panel) (Homo sapiens, UniProt Q99558); details: NIK (Entrez MAP3K14); 1000 nM; read-out: Percent Control
T19 construct: purchased Eurofins DiscoverX

kinome (kinase panel) [20] = biological target: T20, kinome (kinase panel) (Homo sapiens, UniProt P11802); details: 1000 nM, read-out: Percent Control
T20 construct: purchased Eurofins DiscoverX

kinome (kinase panel) [21] = biological target: T21, kinome (kinase panel) (Homo sapiens, UniProt P49761); details: CLK3; 1000 nM; read-out: Percent Control
T21 construct: purchased Eurofins DiscoverX

kinome (kinase panel) [22] = biological target: T22, kinome (kinase panel) (Homo sapiens, UniProt P35590); details: TIE1; 1000 nM; read-out: Percent Control
T22 construct: purchased Eurofins DiscoverX

kinome (kinase panel) [23] = biological target: T23, kinome (kinase panel) (Homo sapiens, UniProt Q08345); details: DDR1; 1000 nM; read-out: Percent Control
T23 construct: purchased Eurofins DiscoverX

kinome (kinase panel) [24] = biological target: T24, kinome (kinase panel) (Homo sapiens, UniProt P78368); details: CSNK1G2; 1000 nM; read-out: Percent Control
T24 construct: purchased Eurofins DiscoverX

kinome (kinase panel) [25] = biological target: T25, kinome (kinase panel) (Homo sapiens, UniProt Q9NQU5); details: PAK6; 1000 nM; read-out: Percent Control
T25 construct: purchased Eurofins DiscoverX

kinome (kinase panel) [26] = biological target: T26, kinome (kinase panel) (Homo sapiens, UniProt Q9Y6R4); details: MAP3K4; 1000 nM; read-out: Percent Control
T26 construct: purchased Eurofins DiscoverX

kinome (kinase panel) [27] = biological target: T27, kinome (kinase panel) (Homo sapiens, UniProt P27448); details: MARK3; 1000 nM; read-out: Percent Control
T27 construct: purchased Eurofins DiscoverX

kinome (kinase panel) [28] = biological target: T28, kinome (kinase panel) (Homo sapiens, UniProt P51617); details: IRAK1; 1000 nM; read-out: Percent Control
T28 construct: purchased Eurofins DiscoverX

kinome (kinase panel) [29] = biological target: T29, kinome (kinase panel) (Homo sapiens, UniProt Q13188); details: MST2 (Entrez STK3); 1000 nM; read-out: Percent Control
T29 construct: purchased Eurofins DiscoverX

kinome (kinase panel) [30] = biological target: T30, kinome (kinase panel) (Homo sapiens, UniProt O75914); details: PAK3; 1000 nM; read-out: Percent Control
T30 construct: purchased Eurofins DiscoverX

kinome (kinase panel) [31] = biological target: T31, kinome (kinase panel) (Homo sapiens, UniProt Q06418); details: TYRO3; 1000 nM; read-out: Percent Control
T31 construct: purchased Eurofins DiscoverX

kinome (kinase panel) [32] = biological target: T32, kinome (kinase panel) (Homo sapiens, UniProt P42336, I800L); details: read-out: Percent Control
T32 construct: purchased Eurofins DiscoverX

T20 sequence (P11802 whole entry): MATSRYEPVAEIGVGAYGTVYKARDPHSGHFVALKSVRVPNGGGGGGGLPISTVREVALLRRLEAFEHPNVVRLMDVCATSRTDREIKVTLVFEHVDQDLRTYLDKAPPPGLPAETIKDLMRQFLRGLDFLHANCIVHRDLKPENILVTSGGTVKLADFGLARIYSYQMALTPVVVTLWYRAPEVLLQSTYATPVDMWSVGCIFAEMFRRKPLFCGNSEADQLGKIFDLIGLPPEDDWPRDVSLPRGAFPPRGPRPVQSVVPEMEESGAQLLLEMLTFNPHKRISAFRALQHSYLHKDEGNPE
T11 sequence (O00141 whole entry): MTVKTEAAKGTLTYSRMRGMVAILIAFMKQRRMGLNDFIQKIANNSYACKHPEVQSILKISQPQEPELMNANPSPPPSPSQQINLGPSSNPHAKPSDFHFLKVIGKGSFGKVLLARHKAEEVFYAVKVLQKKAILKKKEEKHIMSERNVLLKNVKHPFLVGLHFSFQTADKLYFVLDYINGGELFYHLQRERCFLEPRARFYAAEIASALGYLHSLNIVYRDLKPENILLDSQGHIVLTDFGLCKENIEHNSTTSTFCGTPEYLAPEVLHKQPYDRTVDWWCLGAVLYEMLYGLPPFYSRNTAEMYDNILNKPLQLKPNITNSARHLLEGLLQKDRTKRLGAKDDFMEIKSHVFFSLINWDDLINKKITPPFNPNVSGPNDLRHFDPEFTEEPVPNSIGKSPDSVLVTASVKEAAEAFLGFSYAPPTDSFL
T17 sequence (Q8IU85 whole entry): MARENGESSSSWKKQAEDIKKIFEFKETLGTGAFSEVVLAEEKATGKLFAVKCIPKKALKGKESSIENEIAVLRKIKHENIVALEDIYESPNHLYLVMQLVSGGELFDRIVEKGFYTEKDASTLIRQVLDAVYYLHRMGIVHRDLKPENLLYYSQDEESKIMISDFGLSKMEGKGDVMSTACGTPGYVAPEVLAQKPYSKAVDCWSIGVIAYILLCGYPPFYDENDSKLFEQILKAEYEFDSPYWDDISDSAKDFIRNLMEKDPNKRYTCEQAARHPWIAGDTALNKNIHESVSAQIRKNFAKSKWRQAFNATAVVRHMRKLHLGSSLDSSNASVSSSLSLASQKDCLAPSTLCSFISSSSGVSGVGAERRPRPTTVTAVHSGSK
T14 sequence (Q13873 27-1038): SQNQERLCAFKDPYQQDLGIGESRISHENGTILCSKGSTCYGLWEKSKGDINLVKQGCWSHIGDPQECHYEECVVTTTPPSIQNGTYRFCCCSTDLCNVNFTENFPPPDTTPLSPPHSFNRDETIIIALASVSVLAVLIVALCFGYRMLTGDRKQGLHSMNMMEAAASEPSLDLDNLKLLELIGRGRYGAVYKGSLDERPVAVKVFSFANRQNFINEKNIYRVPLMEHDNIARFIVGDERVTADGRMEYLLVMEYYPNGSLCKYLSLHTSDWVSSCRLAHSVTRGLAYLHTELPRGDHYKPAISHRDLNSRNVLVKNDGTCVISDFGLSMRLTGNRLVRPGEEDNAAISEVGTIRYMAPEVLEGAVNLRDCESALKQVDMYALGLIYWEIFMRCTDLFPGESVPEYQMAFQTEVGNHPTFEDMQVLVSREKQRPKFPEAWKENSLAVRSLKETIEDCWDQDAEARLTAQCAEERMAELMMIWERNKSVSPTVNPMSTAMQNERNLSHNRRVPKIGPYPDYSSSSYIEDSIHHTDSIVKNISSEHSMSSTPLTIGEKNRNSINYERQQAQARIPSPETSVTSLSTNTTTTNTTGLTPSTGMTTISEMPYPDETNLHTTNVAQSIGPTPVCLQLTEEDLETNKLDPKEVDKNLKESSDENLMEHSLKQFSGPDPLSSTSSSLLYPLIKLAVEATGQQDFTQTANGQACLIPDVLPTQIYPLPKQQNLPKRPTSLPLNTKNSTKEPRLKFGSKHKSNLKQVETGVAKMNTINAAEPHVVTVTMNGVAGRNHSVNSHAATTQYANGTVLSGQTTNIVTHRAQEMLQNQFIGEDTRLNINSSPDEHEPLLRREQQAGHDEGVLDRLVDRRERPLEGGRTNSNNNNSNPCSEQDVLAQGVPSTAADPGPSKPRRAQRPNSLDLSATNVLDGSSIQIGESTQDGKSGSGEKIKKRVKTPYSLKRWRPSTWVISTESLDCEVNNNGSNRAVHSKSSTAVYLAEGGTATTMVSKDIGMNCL
T5 sequence (Q8N752 whole entry): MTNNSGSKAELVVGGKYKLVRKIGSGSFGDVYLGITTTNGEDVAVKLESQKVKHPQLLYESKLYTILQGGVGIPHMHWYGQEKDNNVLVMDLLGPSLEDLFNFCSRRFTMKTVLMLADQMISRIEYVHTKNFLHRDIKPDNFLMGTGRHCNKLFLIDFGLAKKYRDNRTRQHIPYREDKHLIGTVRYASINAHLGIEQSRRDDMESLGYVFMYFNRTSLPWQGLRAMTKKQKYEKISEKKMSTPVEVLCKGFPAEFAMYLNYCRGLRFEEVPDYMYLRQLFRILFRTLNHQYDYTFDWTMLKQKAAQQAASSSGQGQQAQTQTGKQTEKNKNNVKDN
T26 sequence (Q9Y6R4 whole entry): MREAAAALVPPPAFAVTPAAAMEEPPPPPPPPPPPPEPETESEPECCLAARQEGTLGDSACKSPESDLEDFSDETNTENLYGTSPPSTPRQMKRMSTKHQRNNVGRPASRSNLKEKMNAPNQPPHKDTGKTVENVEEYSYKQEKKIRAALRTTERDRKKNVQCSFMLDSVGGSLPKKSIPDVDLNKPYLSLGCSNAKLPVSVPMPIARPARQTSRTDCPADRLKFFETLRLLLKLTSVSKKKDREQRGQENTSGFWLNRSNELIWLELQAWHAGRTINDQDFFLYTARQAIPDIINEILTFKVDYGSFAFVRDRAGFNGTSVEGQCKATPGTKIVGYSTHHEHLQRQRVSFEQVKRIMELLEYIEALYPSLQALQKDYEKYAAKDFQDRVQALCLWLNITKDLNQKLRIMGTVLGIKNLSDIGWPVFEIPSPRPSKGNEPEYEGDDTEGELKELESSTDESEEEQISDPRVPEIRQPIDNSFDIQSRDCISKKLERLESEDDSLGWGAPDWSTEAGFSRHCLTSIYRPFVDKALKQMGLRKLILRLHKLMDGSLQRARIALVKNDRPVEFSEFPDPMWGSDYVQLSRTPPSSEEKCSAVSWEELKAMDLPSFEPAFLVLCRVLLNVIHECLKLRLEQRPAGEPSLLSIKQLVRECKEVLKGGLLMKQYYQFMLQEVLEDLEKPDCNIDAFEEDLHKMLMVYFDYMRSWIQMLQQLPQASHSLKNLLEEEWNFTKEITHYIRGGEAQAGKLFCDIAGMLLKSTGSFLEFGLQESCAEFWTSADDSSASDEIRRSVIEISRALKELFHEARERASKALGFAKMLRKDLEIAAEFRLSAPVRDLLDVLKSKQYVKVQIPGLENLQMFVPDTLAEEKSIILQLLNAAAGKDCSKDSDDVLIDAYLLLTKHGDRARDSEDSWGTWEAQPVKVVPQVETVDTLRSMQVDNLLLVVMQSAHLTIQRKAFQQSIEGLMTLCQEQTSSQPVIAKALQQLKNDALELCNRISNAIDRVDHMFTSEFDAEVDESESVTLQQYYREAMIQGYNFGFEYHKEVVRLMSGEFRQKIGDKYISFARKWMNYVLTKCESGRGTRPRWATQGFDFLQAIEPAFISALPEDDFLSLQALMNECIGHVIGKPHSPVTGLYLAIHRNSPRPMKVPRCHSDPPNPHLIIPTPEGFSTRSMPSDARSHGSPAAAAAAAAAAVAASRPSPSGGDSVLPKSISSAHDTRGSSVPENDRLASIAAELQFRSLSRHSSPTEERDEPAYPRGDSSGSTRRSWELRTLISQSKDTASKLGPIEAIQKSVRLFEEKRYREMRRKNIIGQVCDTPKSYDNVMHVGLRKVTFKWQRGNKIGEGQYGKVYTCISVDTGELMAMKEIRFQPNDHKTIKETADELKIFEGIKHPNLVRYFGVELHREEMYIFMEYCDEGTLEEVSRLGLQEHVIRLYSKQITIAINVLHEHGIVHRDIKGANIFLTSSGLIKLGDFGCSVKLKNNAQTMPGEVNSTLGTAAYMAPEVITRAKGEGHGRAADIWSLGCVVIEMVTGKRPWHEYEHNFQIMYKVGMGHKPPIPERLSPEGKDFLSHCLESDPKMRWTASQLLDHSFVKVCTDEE
T9 sequence (P37173 23-567): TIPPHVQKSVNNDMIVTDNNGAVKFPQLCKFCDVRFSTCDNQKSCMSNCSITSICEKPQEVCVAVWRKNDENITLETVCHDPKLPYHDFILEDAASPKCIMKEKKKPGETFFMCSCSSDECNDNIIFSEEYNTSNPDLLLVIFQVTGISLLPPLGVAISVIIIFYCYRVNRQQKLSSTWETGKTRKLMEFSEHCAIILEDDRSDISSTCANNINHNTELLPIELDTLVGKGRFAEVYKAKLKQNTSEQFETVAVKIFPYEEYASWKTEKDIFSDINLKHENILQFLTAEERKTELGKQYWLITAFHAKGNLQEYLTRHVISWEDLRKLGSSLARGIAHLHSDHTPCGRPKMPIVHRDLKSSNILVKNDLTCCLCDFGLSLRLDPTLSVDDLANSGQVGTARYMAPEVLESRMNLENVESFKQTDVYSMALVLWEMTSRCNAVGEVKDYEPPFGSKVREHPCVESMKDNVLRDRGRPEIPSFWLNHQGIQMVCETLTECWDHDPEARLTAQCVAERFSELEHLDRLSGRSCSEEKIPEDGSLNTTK
T24 sequence (P78368 whole entry): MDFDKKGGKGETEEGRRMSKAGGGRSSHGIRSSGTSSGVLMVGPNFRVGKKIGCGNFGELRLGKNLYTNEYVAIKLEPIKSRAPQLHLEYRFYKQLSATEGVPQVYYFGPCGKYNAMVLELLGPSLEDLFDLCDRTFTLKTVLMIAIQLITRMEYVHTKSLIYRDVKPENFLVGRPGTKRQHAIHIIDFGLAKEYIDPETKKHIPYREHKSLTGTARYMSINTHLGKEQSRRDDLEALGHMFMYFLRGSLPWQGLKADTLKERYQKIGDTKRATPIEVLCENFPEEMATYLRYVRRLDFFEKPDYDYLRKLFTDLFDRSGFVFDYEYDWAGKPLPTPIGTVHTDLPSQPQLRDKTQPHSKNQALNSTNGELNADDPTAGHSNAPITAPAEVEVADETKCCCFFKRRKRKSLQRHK

## CN(C)C(=O)c1cc2cnc(Nc3ccc(-c4csc5c(=O)cc(N6CCOCC6)oc45)cc3)nc2n1C1CCCC1 [SRX3177]
Kinome (kinase panel) [1]
  remaining binding at 1 µM: 84%
Kinome (kinase panel) [2]
  remaining binding at 1 µM: 88%
Kinome (kinase panel) [3]
  remaining binding at 1 µM: 2.4%
Kinome (kinase panel) [4]
  remaining binding at 1 µM: 90%
Kinome (kinase panel) [5]
  remaining binding at 1 µM: 100%
Kinome (kinase panel) [6]
  remaining binding at 1 µM: 43%
Kinome (kinase panel) [7]
  remaining binding at 1 µM: 76%
Kinome (kinase panel) [8]
  remaining binding at 1 µM: 77%
Kinome (kinase panel) [9]
  remaining binding at 1 µM: 100%
Kinome (kinase panel) [10]
  remaining binding at 1 µM: 100%
Kinome (kinase panel) [11]
  remaining binding at 1 µM: 56%
Kinome (kinase panel) [12]
  remaining binding at 1 µM: 88%
Kinome (kinase panel) [13]
  remaining binding at 1 µM: 90%
Kinome (kinase panel) [14]
  remaining binding at 1 µM: 78%
Kinome (kinase panel) [15]
  remaining binding at 1 µM: 58%
Kinome (kinase panel) [16]
  remaining binding at 1 µM: 70%
Kinome (kinase panel) [17]
  remaining binding at 1 µM: 95%
Kinome (kinase panel) [18]
  remaining binding at 1 µM: 95%
Kinome (kinase panel) [19]
  remaining binding at 1 µM: 45%
Kinome (kinase panel) [20]; CDK4-cyclinD1
  remaining binding at 1 µM: 0.9%
Kinome (kinase panel) [20]; CDK4-cyclinD3
  remaining binding at 1 µM: 1.1%
Kinome (kinase panel) [20]; CDK4
  remaining binding at 1 µM: 18%
Kinome (kinase panel) [21]
  remaining binding at 1 µM: 79%
Kinome (kinase panel) [22]
  remaining binding at 1 µM: 77%
Kinome (kinase panel) [23]
  remaining binding at 1 µM: 72%
Kinome (kinase panel) [24]
  remaining binding at 1 µM: 96%
Kinome (kinase panel) [25]
  remaining binding at 1 µM: 100%
Kinome (kinase panel) [26]
  remaining binding at 1 µM: 90%
Kinome (kinase panel) [27]
  remaining binding at 1 µM: 85%
Kinome (kinase panel) [28]
  remaining binding at 1 µM: 32%
Kinome (kinase panel) [29]
  remaining binding at 1 µM: 61%
Kinome (kinase panel) [30]
  remaining binding at 1 µM: 100%
Kinome (kinase panel) [31]
  remaining binding at 1 µM: 100%
Kinome (kinase panel) [32]
  remaining binding at 1 µM: 8.9%
